Measurements from patent publication US4024280A, “Abietanilides, their production and use” (Nippon Shinyaku Co., Ltd., priority 1974, dated 1977).

Test system: cholesterol concentration in the blood
Test: Blood cholesterol reduction in rats fed a cholesterol/sodium cholate diet
Assay type: in vivo
Conditions: male rats, diet with 1% cholesterol and 0.25% sodium cholate for 3 days, control group = 0, normal group = 100
Method: A completely synthetic diet containing 1% of cholesterol, 0.25% of sodium cholate and 0.003%, 0.01%, 0.03% and 0.1% of the test compound is given to a group of 6 male rats having a body weight of about 50 g consecutively for 3 days, and the rats are fasted overnight. Then, the rats are decapitated and their blood collected to determine the cholesterol concentration in the blood. The concentration of cholesterol in the blood is measured with Technicon Autoanalyzer (Technicon Laboratory: Method File N-24a).
Each value shown in the Table is a relative value determined based on the supposition that the value of the control group (the cholesterol-administered group) is 0 and the value of the normal group (the non-cholesterol-administered group) is 100.

SMILES: CC(C)C1CCC2=C(CCC3C(C)(C(=O)Nc4ccccc4)CCCC23C)C1 (stereo not shown) [Δ^8 -Dihydroabietanilide]
- % Inhibition (dose in diet 0.003%): 18%
- % Inhibition (dose in diet 0.01%): 22%
- % Inhibition (dose in diet 0.03%, * significant at 1% level): 56%
- % Inhibition (dose in diet 0.1%, * significant at 1% level): 93%
